In publication PMC10077545, “Exploration of Antiproliferative Activity and Apoptosis Induction of New Nickel(II) Complexes Encompassing Carbazole Ligands” (ACS Omega, 2023):
Where two headings read alike, the source gives them in different places.

Legend:
[1] = system: human cervical carcinoma (HeLa); assay: MTT assay, in vitro cell viability, HeLa; assay type: cell-based; settings: ± standard deviation
Method: (§1) To study the ability of the prepared ligands and the synthesized complexes in retarding the growth of cancer cell, the MTT assay was performed with human cervical carcinoma (HeLa), human colon carcinoma (HT-29), and non-cancerous L929 (fibroblast) cell lines. As a reference, cisplatin is also examined with all the cell lines for an incubation period of 24 h and as stated in Table 1.
(§2) 2. Experimental Procedures […]
(§3) The cell lines HeLa, HT-29, and L929 were collected from ATCC and the stock cells were cultured in DMEM/ F12 enriched with 10% inactivated Fetal Bovine Serum (FBS), penicillin (100 IU/ml), streptomycin (100 µg/ml) in a humidified atmosphere of 5% carbon dioxide at 37 °C until confluent. The cells were dissociated with cell dissociating solution (0.2 % trypsin, 0.02 % EDTA, 0.05 % glucose in PBS). The viability of the cells have been checked and centrifuged. Further, 50,000 cells /well of […] was seeded in a 96 well plate and incubated for 24 hours at 37 °C, 5 % carbon dioxide incubator.
(§4) The monolayer cell culture has been trypsinized and the cell count was altered to […] using respective media comprising 10% FBS. 100 µL of the diluted cell suspension (50,000 cells/well) was added to each well of the 96 well microtiter plate. When a partial monolayer formed after 24 hours, the supernatant was swiped off and the monolayer has been washed with the medium. 100 µL of various concentrations of complexes have been added on to the partial monolayer in microtiter plates. Then, the […]
(§5) incubation, the test solutions in the wells have been discarded and 100 µL of MTT (5 mg/10 ml of MTT in PBS) was added to each well. The plates have been incubated for four hours at 37 °C in 5% carbon dioxide atmosphere. The supernatant has been removed and 100 µL of DMSO was applied to dissolve the formed formazan. The absorbance was recorded using a microplate reader at 590 nm. The % growth inhibition has been determined using the […]
(§6) Cell viability (%) = (Absorbance of each well/ Absorbance of control well) × 100 […]
(§7) Hoechst 33342 staining method
(§8) 5 × 10^5 HeLa cells have been incubated with IC50 concentration of the complex 4 for 24 hours in a 6-well culture plate and have been fixed with 4% paraformaldehyde followed by permeabilization with 0.1% Triton X-100. Cells were then stained with 50 μg /mL Hoechst 33342 for 30 min at ambient temperature. The cells undergoing apoptosis were observed and visualized by epifluorescence microscope (Carl Zeiss, Germany).

[2] = system: human colon carcinoma (HT-29); assay: MTT assay, in vitro cell viability, HT-29; assay type: cell-based; settings: ± standard deviation
Method: as §1, §2, §3, §4, §5, §6, §7, §8

[3] = system: non-cancerous L929 (fibroblast) cell lines; assay: MTT assay, in vitro cell viability, L929; assay type: cell-based; settings: ± standard deviation
Method: as §1, §2, §3, §4, §5, §6, §7, §8

[4] = Partition coefficient (log P), shake-flask, n-octanol-water; assay type: physicochemical
Description: The permeability of the drug molecules into a lipid cytomembrane is a prime initiative for designing drugs and its development. The main properties like absorption, transportation, and expulsion of the drugs take control over the chief pharmacokinetic properties. Accordingly, we resolve the permeability of all the complexes with the help of calculated log P values using a n-octanol–water system. Based on the solubility of the complexes in aqueous and organic phases, the log P values are determined.[22]−[24] […] Complexes 3 and 4 display higher permeability characters (log P value) due to the presence of halogen and electron-donating group, respectively. Additionally, the presence of the carbazole moiety in the complexes enhanced the lipophilicity.[25],[26]
2. Experimental Procedures
UV-visible time dependent spectral method has been used to examine the stability of the complexes. Complexes were dissolved in a minimum amount of 1% DMSO and then diluted with PBS buffer to 1×10−3 M concentration. The hydrolysis profiles of the complexes were monitored by their electronic spectra over 72 h.
Partition coefficients determination
The "shake-flask" technique was used to evaluate the lipophilicity of complexes 2 - 4 using octanol/water phase partitions. Double distilled water and analytical grade octanol (Sigma Aldrich) were used to produce octanol-saturated water and water-saturated octanol phases. Complexes 2−4 (1 mg/mL; ethanol/water) have been diluted to 2, 4, 6, 8, and 10 μg/mL in water and alternatively were diluted to 2, 4, 6, 8, and 10 μg/mL in octanol, respectively. Equal volumes (50/50) of the complexes in the proper concentrations […] have been shaken for 24 hours at ambient temperature. The organic and aqueous fractions have been separated and centrifuged when equilibrium was attained. Finally, UV-visible spectroscopy was used to determine the complex concentration in each phase. The concentration of the sample solution was used to calculate the partition coefficients (log P) by using the equation log P = log[(1−3)oct/(1−3)aq]. 4 […]

HeLa cancer cells [5] = assay: ROS detection (DCFH-DA); assay type: cell-based, human; settings: IC50 concentration, 24 h, control 20 %
Description: ROS, like hydrogen peroxide, superoxide anion, and hydroxyl radical, are produced on mitochondrial oxidative metabolism along with cell’s reaction toward cytokines and bacterial invasion. At low levels of ROS, it could participate in cell signaling. Whereas, at higher levels they might damage (DNA and RNA) and engage in apoptosis via mitochondrial dysfunction.[32] The quantity of ROS is detected with the help of oxidant fluorescent dye. The nonpolar dye DCFH-DA turned out to be deacetylated and transformed into DCFH (polar) by intracellular esterases. However, DCFH is not identified using a microscope. […]
(§9) To quantify the intracellular ROS, 5 × 10^5 HeLa cells have been seeded on a 6-well plate comprising cover slip and incubated overnight for attachment. […]
(§10) Culture cells on cover slips in 6‐well cell culture plates at a density around 5 x 10^5 cells/mL overnight in an incubator (5% carbon dioxide, 37 °C). […] The cells were immediately examined under a fluorescent microscope (Olympus, CKX-53, Japan), and the proportion of dead cells was calculated in at least three randomly chosen microscopic fields. […]
(§11) HeLa ells have been seeded in a 6-well plate (10^5 cells/well)) and cultured at 37 °C for 24 hours. […] Finally, apoptosis induction has been assessed using a flow cytometer (SYSMEX, Japan), and the data have been analyzed by Flow Jo software. […]

HeLa cancer cells [6] = assay: Mitochondrial membrane potential, JC-1 staining; assay type: cell-based, human; settings: IC50 concentration, 24 h
Method: The mitochondrial dysfunction-mediated apoptosis was assayed via ROS generation. After the mitochondrial impairment, the mitochondrial membrane potential (MMP) is reduced and the same was examined using JC-1 fluorescence dye. The dye is used to assay the MMP to determine mitochondrial viability. Proapoptotic factors and other apoptotic inducing features were produced by mitochondria, which serves to be a significant role for apoptosis. […] In the control group (Figure 7A), JC-1 accumulates and produces a red fluorescence correlating to a high MMP.
(§12) Reactive Oxygen Species (ROS) Assay
as §9, §10, §11

caspase-8 = assay: Caspase activity assay, caspase-8 in HeLa cells; assay type: cell-based, human; settings: IC50 concentration, 12 and 24 h
Description: (§13) The apoptotic mode of cancer cell death was further substantiated by caspase activation by ELISA analysis. In eukaryotes, caspases(protease enzymes) play a significant role in induction, transduction, and amplification of intracellular apoptotic signals. Based on the amino acid composition, caspases are divided into three sub-families, namely, […], executioner, and mediator caspases.[37] Most importantly, the initiator and executioner caspases get involved in the apoptotic signaling cascade. Caspase-8 and -9 are the initiators of the extrinsic and intrinsic pathways of apoptosis, respectively. Both mechanisms converge in the activation of the executioner caspase-3.[38]
as §12, §9, §10
(§14) The caspase activity assay was determined by a chromogenic assay using caspase-3 (Calbiochem, Merck), caspase-8 and 9 (Chemicon International Inc.) colorimeter activity assay kits. […]

caspase-3 = assay: Caspase activity assay, caspase-3 in HeLa cells; assay type: cell-based, human; settings: IC50 concentration, 12 and 24 h
Description: as §13, §12, §9, §10, §14

caspase-9 = assay: Caspase activity assay, caspase-9 in HeLa cells; assay type: cell-based, human; settings: IC50 concentration, 12 and 24 h
Description: as §13, §12, §9, §10, §14

[7] = Homo sapiens, HeLa, 24 h incubation, read-out: IC50 HeLa 24 h
[8] = Homo sapiens, HeLa, 48 h incubation, read-out: IC50 HeLa 48 h
[9] = Homo sapiens, HT-29, 24 h incubation, read-out: IC50 HT-29 24 h
[10] = Homo sapiens, HT-29, 48 h incubation, read-out: IC50 HT-29 48 h
[11] = Mus musculus, L929, 24 h incubation, read-out: IC50 L929 24 h
[12] = Mus musculus, L929, 48 h incubation, read-out: IC50 L929 48 h
[13] = 24 h incubation, read-out: IC50 HeLa 24 h
[14] = 48 h incubation, read-out: IC50 HeLa 48 h
[15] = 24 h incubation, read-out: IC50 HT-29 24 h
[16] = 48 h incubation, read-out: IC50 HT-29 48 h
[17] = 24 h incubation, read-out: IC50 L929 24 h
[18] = 48 h incubation, read-out: IC50 L929 48 h
[19] = n-octanol-water system, shake-flask, UV-visible

| IC50 [1, 7] | IC50 [1, 8] | IC50 [2, 9] | IC50 [2, 10] | log P [4] | Structure (SMILES) | IC50 [3, 11] | IC50 [3, 12] | IC50 [1, 13] | IC50 [1, 14] | IC50 [2, 15] | IC50 [2, 16] | IC50 [3, 17] | IC50 [3, 18] | log P [4, 19] | % of fluorescence intensity, reactive oxygen species (DCFH-DA) (HeLa cancer cells [5]) | Mitochondrial membrane potential (JC-1 fluorescence) (HeLa cancer cells [6]) | Expression of caspase-8 (caspase-8) | Caspase-3 activity versus control cells (caspase-3) | Caspase-9 activity versus control cells (caspase-9) |
| --- | --- | --- | --- | --- | --- | --- | --- | --- | --- | --- | --- | --- | --- | --- | --- | --- | --- | --- | --- |
| > 100 µM | 86.2 ± 1.12 µM | > 100 µM | 94 ± 1.27 µM | – | O=C(N/N=C1/CCCc2c1[nH]c1ccccc21)c1ccc(Cl)cc1 [L2] | > 100 µM | > 100 µM | – | – | – | – | – | – | – | – | – | – | – | – |
| > 100 µM | > 100 µM | > 100 µM | > 100 µM | – | O=C(N/N=C1/CCCc2c1[nH]c1ccccc21)c1ccccc1 [L1] | > 100 µM | > 100 µM | – | – | – | – | – | – | – | – | – | – | – | – |
| > 100 µM | 73.4 ± 0.82 µM | > 100 µM | 81.7 ± 1.09 µM | – | COc1ccc(C(=O)N/N=C2/CCCc3c2[nH]c2ccccc32)cc1 [L3] | > 100 µM | > 100 µM | – | – | – | – | – | – | – | – | – | – | – | – |

The next lines start with the compound.

| Structure (SMILES) | IC50 [1, 7] | IC50 [1, 8] | IC50 [2, 9] | IC50 [2, 10] | log P [4] | IC50 [3, 11] | IC50 [3, 12] | IC50 [1, 13] | IC50 [1, 14] | IC50 [2, 15] | IC50 [2, 16] | IC50 [3, 17] | IC50 [3, 18] | log P [4, 19] | % of fluorescence intensity, reactive oxygen species (DCFH-DA) (HeLa cancer cells [5]) | Mitochondrial membrane potential (JC-1 fluorescence) (HeLa cancer cells [6]) | Expression of caspase-8 (caspase-8) | Caspase-3 activity versus control cells (caspase-3) | Caspase-9 activity versus control cells (caspase-9) |
| --- | --- | --- | --- | --- | --- | --- | --- | --- | --- | --- | --- | --- | --- | --- | --- | --- | --- | --- | --- |
| c1ccc(C(=NN=C2CCCc3c2[nH]c2ccccc32)[O][Ni][O]C(=NN=C2CCCc3c2[nH]c2ccccc32)c2ccccc2)cc1 [complex 2, [Ni(L1)2]] | – | – | – | – | – | – | – | 49.3 ± 1.05 µM | 40.12 ± 0.09 µM | 68.59 ± 0.27 µM | 61.25 ± 0.47 µM | 248.1 ± 1.12 µM | 236.3 ± 1.45 µM | 0.86 ± 0.14 | – | – | – | – | – |
| Clc1ccc(C(=NN=C2CCCc3c2[nH]c2ccccc32)[O][Ni][O]C(=NN=C2CCCc3c2[nH]c2ccccc32)c2ccc(Cl)cc2)cc1 [complex 3, [Ni(L2)2]] | – | – | – | – | 1.57 ± 0.12 | – | – | 45.4 ± 0.72 µM | 32.8 ± 1.19 µM | 59.2 ± 0.64 µM | 50.8 ± 1.11 µM | 253.1 ± 0.61 µM | 247.4 ± 0.28 µM | – | – | – | – | – | – |
| COc1ccc(C(=NN=C2CCCc3c2[nH]c2ccccc32)[O][Ni][O]C(=NN=C2CCCc3c2[nH]c2ccccc32)c2ccc(OC)cc2)cc1 [complex 4, [Ni(L3)2]] | – | – | – | – | – | – | – | 43.39 ± 0.21 µM | 28.2 ± 0.32 µM | 57.42 ± 0.09 µM | 41.2 ± 1.28 µM | 275.8 ± 0.35 µM | 269.1 ± 1.1 µM | 1.95 ± 0.05 | 80% | decrease in MMP | efficiently upregulated | time-dependent increase | time-dependent increase |
| N.N.[Cl][Pt][Cl] [cisplatin, reference compound] | – | – | – | – | – | – | – | 28.04 ± 0.18 µM | 12.4 ± 1.81 µM | 34.3 ± 1.45 µM | 14.3 ± 1.57 µM | 146.5 ± 0.79 µM | 141.2 ± 0.37 µM | – | – | – | – | – | – |
